From US8906904B2, “Alkoxy pyrazoles as soluble guanylate cyclase activators” (Boehringer Ingelheim International GmbH, priority 2012, dated 2014)

Assay: human liver microsome (HLM) metabolic stability assay
Assay type: in vitro ADME
Details: human liver microsomes; % hepatic blood flow calculated from t1/2
Procedure: The 5 time point, high-throughput human liver microsome (HLM) metabolic stability assay is designed to determine in vitro compound metabolism. Compounds are incubated with HLMs at a concentration of 1 uM, at 37° C., for a total of 60 min. The percent of compound remaining at 5, 15, 30, and 60 min is used to calculate the t½ (min), CLint (mL/min/kg), CLh (mL/min/kg), and % Qh. The assay is based on a 96-well format and can accommodate up to 92 compounds per plate (n=1).
Using the 96-well multi-channel head, the Biomek FX, equipped with a Peltier heating block/shaker, is programmed to accomplish the following steps: • 1. Pipette 175 uL of 1.15 mg/mL microsomes into each of the 96 conical inserts (Analytical Sales and Products, catalog number 96PL05) that fit into the plate of the Peltier heating block/shaker (the incubation plate) • 2. Add 5 uL of compounds from the assay plate to the microsomes and shake the mixture at 600 rpm at 42.1° C. for 10 min (a setting of 42.1° C. on the Peltier is required for the samples to incubate at 37° C.) • 3. After 10 min, prompt the user to add the NADPH plate to the deck and add 20 uL from the NADPH plate to the incubation plate to start the reaction • 4. Add 215 uL of 100%, cold acetonitrile containing an internal standard(s) to a 0 minute, 5 minute, 15 minute, 30 minute, and 60 minute “quench” plate • 5. At 0 min, 5 min, 15 min, 30 min, and 60 min into the incubation, aspirate 12 uL from the incubation mixture and add it to the quench solution to stop the reaction • 6. Add 185 uL HPLC grade water to each well of the 0, 5, 15, 30 and 60 minute quench plates to dilute compounds to the appropriate concentration for the mass spectrometer
After all time points are collected, the quench plates are sealed with 96-well pierceable plate mats or heat sealing foil and centrifuged at 3000 rpm for 15 min to pellet the microsomes.
The plates are analyzed using LC/MS/MS with electron spray ionization (ESI) and the previously determined MRM transitions. The LC method includes the following parameters:
Using an Excel template in Activitybase, the peak areas corresponding to 5, 15, 30 and 60 min are compared to the peak area at 0 min to calculate the percent of remaining compound using the following equation: Percent compound remaining=(AUC at Time t min/AUC at Time 0 min)×100 where t=0, 5, 15, 30 or 60 min.
Time (min) is plotted against the natural logarithm (Ln) of the percent compound remaining to determine the slope. The slope is used to calculate t½ (min) using the equation, t½=0.693/slope.
Preferred compounds have % Qh values of less than 24.

Structure (SMILES) | HLM (% Qh)
CCOc1c(C(=O)O)cnn1-c1cccc(-c2cccc(C)c2OCc2ccc3c(c2C)CCN(C[C@H]2CCCOC2)C3)n1 [Compound 153] | <24
COc1c(C(=O)O)cnn1-c1cccc(-c2cccc(C)c2OCc2ccc3c(c2C)CCN(C2COC2)CC3)n1 [Compound 176] | 28
CCOc1c(C(=O)O)cnn1-c1cccc(-c2cccc(C)c2OCc2ccc3c(c2C(F)(F)F)CCN(C2CCOCC2)C3)n1 [Compound 165] | <24
COc1c(C(=O)O)cnn1-c1cccc(-c2cccc(C)c2OCc2ccc3c(c2C)CCN(S(C)(=O)=O)C3)n1 [Compound 160] | 44
COc1c(C(=O)O)cnn1-c1cccc(-c2cc(C)ccc2OCc2ccc3c(c2C)CCN(C2CCOCC2)C3)n1 [Compound 124] | <24
CCOc1c(C(=O)O)cnn1-c1cccc(-c2cccc(C)c2OCc2ccc3c(c2C)CCN(C2COC2)CC3)n1 [Compound 175] | 31
CC[C@H](C)Oc1c(C(=O)O)cnn1-c1cccc(-c2cccc(C)c2OCc2ccc3c(c2C)CCN(C2CCOCC2)C3)n1 [Compound 136] | <24
CCOc1c(C(=O)O)cnn1-c1cccc(-c2cccc(C)c2OCc2ccc3c(c2C)CCN(C2COC2)C3)n1 [Compound 164] | <24
CCOc1c(C(=O)O)cnn1-c1cccc(-c2cccc(C)c2OCc2ccc3c(c2C)CCN(C(=O)C2CCOCC2)C3)n1 [Compound 147, 5-Ethoxy-1-(6-{3-methyl-2-[5-methyl-2-(tetrahydro-pyran-4-carbonyl)-1,2,3,4-tetrahydro-isoquinolin-6-ylmethoxy]-phenyl}-pyridin-2-yl)-1H-pyrazole-4-carboxylic acid] | <24
CCOc1c(C(=O)O)cnn1-c1cccc(-c2cccc(C)c2OCc2ccc3c(c2C)CCN(CC2CCOC(C)(C)C2)C3)n1 (centres unmarked) [Compound 163] | <24
CCOc1c(C(=O)O)cnn1-c1cccc(-c2cccc(C)c2OCc2ccc3c(c2C)CCN(CC2CCOCC2)C3)n1 [Compound 172] | <24
COc1c(C(=O)O)cnn1-c1cccc(-c2cccc(C)c2OCc2cc(C)c3c(c2C)CN(C2CCOCC2)C3)n1 [Compound 145] | <24
CCOc1c(C(=O)O)cnn1-c1cccc(-c2cccc(C)c2OCc2ccc3c(c2)CCN(CC2CC(=O)N(C)C2)C3)n1 (centres unmarked) [Compound 97, 5-ethoxy-1-(6-{3-methyl-2-[2-(1-methyl-5-oxo-pyrrolidin-3-ylmethyl)-1,2,3,4-tetrahydro-isoquinolin-6-ylmethoxy]-phenyl}-pyridin-2-yl)-1H-pyrazole-4-carboxylic acid] | <24
COc1c(C(=O)O)cnn1-c1cccc(-c2cccc(C)c2OCc2cc(C)c3c(c2)CCN(C2CCOCC2)C3)n1 [Compound 171] | <24
COc1c(C(=O)O)cnn1-c1cccc(-c2cccc(C)c2OCc2ccc3c(c2)C(C)(C)CN(C2COC2)C3)n1 [Compound 10] | 30
CCOc1c(C(=O)O)cnn1-c1cccc(-c2cccc(C)c2OCc2ccc3c(c2C)CCN(C2CCOCC2)CC3)n1 [Compound 162] | 26
COc1c(C(=O)O)cnn1-c1cccc(-c2cccc(C)c2OCc2ccc3c(c2C)CCN(C[C@H]2COCCO2)C3)n1 [Compound 142] | <24
CCOc1c(C(=O)O)cnn1-c1cccc(-c2cccc(C)c2OCc2cc(C)c3c(c2)CN(C2CCOCC2)C3)n1 [Compound 118] | <24
CCCOc1c(C(=O)O)cnn1-c1cccc(-c2cccc(C)c2OCc2ccc3c(c2C)CCN(C2CCOCC2)C3)n1 [Compound 133] | <24
CCOc1c(C(=O)O)cnn1-c1cccc(-c2cccc(C)c2OCc2ccc3c(c2C)CCN(CC2CCCOC2)C3)n1 (centres unmarked) [Compound 146] | <24
COc1c(C(=O)O)cnn1-c1cccc(-c2cccc(C)c2OCc2ccc3c(c2)CCN(CC(C)(C)C)C3)n1 [Compound 14] | 31
COc1c(C(=O)O)cnn1-c1cccc(-c2cccc(C)c2OCc2ccc3c(c2C)CCN(C[C@@H]2COCCO2)C3)n1 [Compound 139] | <24

Further lines, results first:

HLM (% Qh) | Structure (SMILES)
<24 | CCOc1c(C(=O)O)cnn1-c1cccc(-c2cccc(C)c2OCc2ccc3c(c2)CCN([C@H]2CCOC2)C3)n1 [Compound 110]
<24 | COc1c(C(=O)O)cnn1-c1cccc(-c2cccc(C)c2OCc2ccc3c(c2C)CCN([C@@H]2CCOC2)C3)n1 [Compound 106]
<24 | COc1c(C(=O)O)cnn1-c1cccc(-c2cccc(Cl)c2OCc2ccc3c(c2)CCN(C2COC2)C3)n1 [Compound 7]
<24 | COc1c(C(=O)O)cnn1-c1cccc(-c2cccc(C)c2OCc2ccc3c(c2C)CCN([C@@H]2CCCOC2)C3)n1 [Compound 140]
<24 | Cc1cc(COc2c(C)cccc2-c2cccc(-n3ncc(C(=O)O)c3OC(C)C)n2)cc2c1CN(C1CCOCC1)CC2 [Compound 161]
<24 | CCOc1c(C(=O)O)cnn1-c1cccc(-c2cccc(C)c2OCc2ccc3c(c2C)CCN([C@@H]2CCCOC2)C3)n1 [Compound 128]
28 | CCOc1c(C(=O)O)cnn1-c1cccc(-c2cccc(C)c2OCc2ccc3c(c2)OCCN(C2CCOCC2)C3)n1 [Compound 131]
<24 | COc1c(C(=O)O)cnn1-c1cccc(-c2cccc(C)c2OCc2ccc3c(c2)CCN(C2COC2)C3)n1 [Compound 8]
25 | Cc1cccc(-c2cccc(-n3ncc(C(=O)O)c3OC(C)C)n2)c1OCc1ccc2c(c1C)CCN([C@H]1CCCOC1)C2 [Compound 117]
<24 | Cc1cccc(-c2cccc(-n3ncc(C(=O)O)c3OC(C)C)n2)c1OCc1ccc2c(c1)CCN([C@@H]1CCCOC1)C2 [Compound 113]
<24 | COc1c(C(=O)O)cnn1-c1cccc(-c2cccc(C)c2OCc2ccc3c(c2)CCN([C@H]2CC[C@]4(CCCO4)CC2)C3)n1 [Compound 102]
<24 | CC(C)Oc1c(C(=O)O)cnn1-c1cccc(-c2ccccc2OCc2ccc3c(c2)CCN(C2CCOCC2)C3)n1 [Compound 144]
29 | CC[C@H](C)Oc1c(C(=O)O)cnn1-c1cccc(-c2cccc(C)c2OCc2ccc3c(c2C)CCN(C2CCCOC2)C3)n1 (some centres unmarked) [Compound 135]
<24 | CCOc1c(C(=O)O)cnn1-c1cccc(-c2cccc(C)c2OCc2cc(C)c3c(c2)CCN(C2COC2)C3)n1 [Compound 174]
25 | Cc1cccc(-c2cccc(-n3ncc(C(=O)O)c3OC(C)C)n2)c1OCc1ccc2c(c1)CCN([C@H]1CCCOC1)C2 [Compound 115]
<24 | CCOc1c(C(=O)O)cnn1-c1cccc(-c2cccc(C)c2OCc2ccc3c(c2C)CCN([C@H]2CCOC2)C3)n1 [Compound 125]
<24 | CC[C@H](C)Oc1c(C(=O)O)cnn1-c1cccc(-c2cccc(C)c2OCc2ccc3c(c2C)CCN(C2CCOC2)C3)n1 (some centres unmarked) [Compound 137]
<24 | CCOc1c(C(=O)O)cnn1-c1cccc(-c2cccc(C)c2OCc2ccc3c(c2)CCN([C@@H]2CCOC2)C3)n1 [Compound 112]
<24 | COc1c(C(=O)O)cnn1-c1cccc(-c2cccc(C)c2OCc2ccc3c(c2C)CCN([C@H]2CCOC2)C3)n1 [Compound 105]
